One assay has as its system heat shock gene HSP70A. In words: Expression of heat shock gene HSP70A in nematode cultures exposed to cyclolinopeptide-A. It counts as in vivo, Caenorhabditis elegans. The following applies: two hours exposure, C. elegans. An excerpt: FIG. 17 is a chart showing the effects of cyclolinopeptide A on the expression of the HSP70A gene in Caenorhabditis elegans. Bars on the columns represent standard deviations. Letters above the bars designate significant differences determined by data analysis using one-way analysis of variance with pair-wise multiple comparisons were done by the Tukey test; and
The following example relates to the use of selected purified individual cyclolinopeptides recovered and processed as disclosed herein for modulating the expression of stress genes. Nematode cultures (Caenorhabditus elegans) were exposed for two hours to one of DMSO (negative control), 0.1 μM cyclolinopeptide-A, 1.0 μM cyclolinopeptide-A, 10.0 μM cyclolinopeptide-A, and 100.0 μM cyclolinopeptide-A, and then cultured to assess the effects of cyclolinopeptide-A on the expression of the heat shock gene HSP70A by C. elegans. The control treatment was unamended culture medium.

Assay [1] relates to human lung adenocarcinoma cells (Calu-3). Kind of assay: Microarray analysis of apoptosis-regulating genes in Calu-3 cells. Further details: key: ‘+’ and ‘−’ indicates genes over- and under-expressed, respectively; ‘+’ and ‘−’ indicates genes over- and under-expressed, respectively. It counts as cell-based. The method, then:
Cell culture. Human bronchial epithelial adenocarcinoma cell line (Calu-3) was obtained from ATCC (Manassas, Va., USA) and cultured in 50 cm^2 plastic culture flasks in modified eagle's medium (MEM) supplemented with 10% fetal bovine serum, glutamine (4 mM; Sigma-Aldrich, Canada) and penicillin (100 U mL-1)-streptomycin (100 μg mL-1) solution (Sigma-Aldrich, Canada). Cells were cultured at an initial density of 10^6 cells/mL, and fresh media was added on day 3. Cells were grown in an incubator at 37° C., 5% CO2, and 100% humidity.
Chemical treatments. Calu-3 cells were treated with different concentrations (0-100 μM) of cyclolinopeptide A (“CLA”), cyclolinopeptide C (“CLC”) or cyclolinopeptide E (“CLE”). Camptothecin (Sigma-Aldrich, Canada; 4 μM) and dimethylsulfoxide (DMSO) were used as positive and negative controls, respectively. Camptothecin is useful as a positive control in studies testing the effect of certain compounds on apoptosis in cancer cell lines. Camptothecin is a cytotoxic quinoline alkaloid that inhibits the DNA enzyme topoisomerase I (topo I) and has shown remarkable anti-cancer activity. Two analogs of camptothecin have been approved and are used in cancer chemotherapy.
Current microarray design platforms facilitate the design of gene expression arrays for analysis of a compound of interest and its impact on a large number of known genes. Cyclolinopeptide A, cyclolinopeptide C and cyclolinopeptide E were therefore used in microarray analysis to determine their effect on under- and over-expression of genes involved in the regulation of apoptosis in human lung adenocarcinoma cells (Table 2).

As for cyclolinopeptide A [CLP-A], in the assay with heat shock gene HSP70A (0.1 μM in culture media), the “increase in the production of the Hsp70A protein” value was determined as 30%. For the same substance, the “increase in the production of this heat shock protein (Hsp70A)” value with heat shock gene HSP70A (1.0 μM in culture media) was 3.5 fold. Also, the “increase in the production of the Hsp70A protein” value with heat shock gene HSP70A (10.0 μM in culture media) came to 30%. Further, in assay [1], the “BAK gene up- or down-regulated” value was “+”, the “BCL-2 gene up- or down-regulated” value is recorded as “+”, the “CDEB gene up- or down-regulated” value is given as “+” and the “FASLG gene up- or down-regulated” value is recorded as “+”. For the same substance, in assay [1], the “Fas gene up- or down-regulated” value was “+”, the “TNF gene up- or down-regulated” value was “+”, the “TP53BP2 gene up- or down-regulated” value was “+” and the “TP53 gene up- or down-regulated” value is listed as “+”.

cyclolinopeptide E [CLP-E]: in assay [1], the “BCL-2 gene up- or down-regulated” value was “−”, the “CDEB gene up- or down-regulated” value was “+”, the “CIDEA gene up- or down-regulated” value is “+” and the “Fas gene up- or down-regulated” value is “+”. Besides, in assay [1], the “HRK gene up- or down-regulated” value is “+”, the “TNF gene up- or down-regulated” value was “+” and the “TP53BP2 gene up- or down-regulated” value was “+”.

Take cyclolinopeptide C [CLP-C]: in assay [1], the “BCL-2 gene up- or down-regulated” value is “−”, the “CASP10 gene up- or down-regulated” value is given as “+”, the “CDEB gene up- or down-regulated” value is given as “+” and the “CIDEA gene up- or down-regulated” value is given as “+”. In assay [1], the “Fas gene up- or down-regulated” value is on record as “+”, the “HRK gene up- or down-regulated” value is “+”, the “TNF gene up- or down-regulated” value is “+” and the “TP53BP2 gene up- or down-regulated” value is reported as “+”. Further, in assay [1], the “TP53 gene up- or down-regulated” value is recorded as “+”.

(Values after patent publication US8383172B2, “Recovery of hydrophobic peptides from oils” (University of Saskatchewan, priority 2007, dated 2013).)
